Laboratory results taken from patent US10570131B2, “Heterocyclic compounds and their use in preventing or treating bacterial infections” (MUTABILIS, priority 2015, dated 2020).
Structures can show the parent of a compound that is named as a salt.

Legend:
Assay type in all cases: cell-based
[1] = system: P. aeruginosa UFR92; assay: MIC of ceftazidime alone and in combination with compounds (synergy), broth microdilution; conditions: MIC of ceftazidime with compound fixed at 4 μg/mL; strain UFR92 (derepressed AmpC, OprD−)
Summary of the method: (§1)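 DMSO solutions of compound were dispensed into wells, then log-phase bacteria added to a final 5×10^5 cfu/mL in cation-adjusted Mueller-Hinton broth. After 16-20 h at 35° C in ambient air, the lowest concentration without visible growth was recorded as MIC.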

[2] = system: E. cloacae UFR38; assay: as above; conditions: MIC of ceftazidime with compound fixed at 4 μg/mL; strain UFR38 (CTX-M-15, NDM-1)
[3] = system: E. coli UFR52; assay: as above; conditions: MIC of ceftazidime with compound fixed at 4 μg/mL; strain UFR52 (TEM-1, SHV-12, IMP-8)
[4] = system: P. aeruginosa UFR93; assay: as above; conditions: MIC of ceftazidime with compound fixed at 4 μg/mL; strain UFR93 (derepressed AmpC, OprD−, MexAB+, MexXY+)
[5] = system: C. murliniae 210102; assay: as above; conditions: MIC of ceftazidime with compound fixed at 4 μg/mL; strain 210102 (VIM-4)
[6] = system: P. aeruginosa UFR92; assay: MIC of compounds alone, broth microdilution; conditions: Pseudomonas aeruginosa, UFR92, read-out: MIC compounds of the invention alone
Summary of the method: as §1

[7] = system: E. coli UFR61O; assay: MIC of compounds alone, broth microdilution; conditions: Escherichia coli, UFR61O, read-out: MIC compounds of the invention alone
Summary of the method: as §1

[8] = system: K. pneumoniae UFR68; assay: MIC of compounds alone, broth microdilution; conditions: Klebsiella pneumoniae, UFR68, read-out: MIC compounds of the invention alone
Summary of the method: as §1

[9] = system: E. coli UFR74; assay: MIC of compounds alone, broth microdilution; conditions: Escherichia coli, UFR74, read-out: MIC compounds of the invention alone
Summary of the method: as §1

[10] = system: E. cloacae UFR38; assay: MIC of compounds alone, broth microdilution; conditions: Enterobacter cloacae; strain UFR38 (CTX-M-15, NDM-1); read-out: MIC compounds of the invention alone
Summary of the method: as §1

[11] = system: E. cloacae 260508; assay: MIC of compounds alone, broth microdilution; conditions: Enterobacter cloacae, 260508, read-out: MIC compounds of the invention alone
Summary of the method: as §1

[12] = system: E. coli UFR32; assay: MIC of compounds alone, broth microdilution; conditions: Escherichia coli, UFR32, read-out: MIC compounds of the invention alone
Summary of the method: as §1

[13] = system: K. pneumoniae 200047; assay: MIC of compounds alone, broth microdilution; conditions: Klebsiella pneumoniae, 200047, read-out: MIC compounds of the invention alone
Summary of the method: as §1

[14] = system: K. pneumoniae 160143; assay: MIC of compounds alone, broth microdilution; conditions: Klebsiella pneumoniae, 160143, read-out: MIC compounds of the invention alone
Summary of the method: as §1

[15] = system: K. pneumoniae UFR77; assay: MIC of compounds alone, broth microdilution; conditions: Klebsiella pneumoniae; strain UFR77 (CMY-2); read-out: MIC compounds of the invention alone
Summary of the method: as §1

[16] = system: E. cloacae UFR85; assay: MIC of compounds alone, broth microdilution; conditions: Enterobacter cloacae, UFR85, read-out: MIC compounds of the invention alone
Summary of the method: as §1

[17] = system: K. oxytoca UFR21; assay: MIC of compounds alone, broth microdilution; conditions: Klebsiella oxytoca, UFR21, read-out: MIC compounds of the invention alone
Summary of the method: as §1

[18] = system: P. aeruginosa UFR35; assay: MIC of compounds alone, broth microdilution; conditions: Pseudomonas aeruginosa; strain UFR35 (OXA-23); read-out: MIC compounds of the invention alone
Summary of the method: as §1

[19] = system: P. aeruginosa UFR47; assay: MIC of compounds alone, broth microdilution; conditions: Pseudomonas aeruginosa; strain UFR47 (VIM-1); read-out: MIC compounds of the invention alone
Summary of the method: as §1

[20] = system: P. aeruginosa UFR59; assay: MIC of compounds alone, broth microdilution; conditions: Pseudomonas aeruginosa; strain UFR59 (IMP-29); read-out: MIC compounds of the invention alone
Summary of the method: as §1

[21] = system: E. cloacae UFR70; assay: MIC of compounds alone, broth microdilution; conditions: Enterobacter cloacae, UFR70, read-out: MIC compounds of the invention alone
Summary of the method: as §1

[22] = system: P. aeruginosa UFR90; assay: MIC of compounds alone, broth microdilution; conditions: Pseudomonas aeruginosa, UFR90, read-out: MIC compounds of the invention alone
Summary of the method: as §1

[23] = system: K. pneumoniae UFR24; assay: MIC of compounds alone, broth microdilution; conditions: Klebsiella pneumoniae, UFR24, read-out: MIC compounds of the invention alone
Summary of the method: as §1

[24] = system: P. aeruginosa UFR48; assay: MIC of compounds alone, broth microdilution; conditions: Pseudomonas aeruginosa; strain UFR48 (VIM-2); read-out: MIC compounds of the invention alone
Summary of the method: as §1

[25] = system: C. murliniae 210102; assay: MIC of compounds alone, broth microdilution; conditions: strain 210102 (VIM-4); read-out: MIC compounds of the invention alone
Summary of the method: as §1

[26] = system: E. coli UFR18; assay: MIC of compounds alone, broth microdilution; conditions: Escherichia coli; strain UFR18 (CTX-M-15, OXA-204); read-out: MIC compounds of the invention alone
Summary of the method: as §1

[27] = system: P. aeruginosa UFR93; assay: MIC of compounds alone, broth microdilution; conditions: Pseudomonas aeruginosa, UFR93, read-out: MIC compounds of the invention alone
Summary of the method: as §1

[28] = system: E. coli UFR52; assay: MIC of compounds alone, broth microdilution; conditions: Escherichia coli, UFR52, read-out: MIC compounds of the invention alone
Summary of the method: as §1

[29] = system: P. aeruginosa UFR47; assay: MIC of ceftazidime alone and in combination with compounds (synergy), broth microdilution; conditions: MIC of ceftazidime with compound fixed at 4 μg/mL; strain UFR47 (VIM-1)

| Compound | MIC, combination of CAZ and compounds of the invention at 4 μg/mL [1] [µg/mL] | MIC, combination of CAZ and compounds of the invention at 4 μg/mL [2] [µg/mL] | MIC, combination of CAZ and compounds of the invention at 4 μg/mL [3] [µg/mL] | MIC, combination of CAZ and compounds of the invention at 4 μg/mL [4] [µg/mL] | MIC, combination of CAZ and compounds of the invention at 4 μg/mL [5] [µg/mL] | MIC [6] [µg/mL] | MIC [7] [µg/mL] | MIC [8] [µg/mL] | MIC [9] [µg/mL] | MIC [10] [µg/mL] | MIC [11] [µg/mL] | MIC [12] [µg/mL] | MIC [13] [µg/mL] | MIC [14] [µg/mL] | MIC [15] [µg/mL] | MIC [16] [µg/mL] | MIC [17] [µg/mL] | MIC [18] [µg/mL] | MIC [19] [µg/mL] | MIC [20] [µg/mL] | other results |
| --- | --- | --- | --- | --- | --- | --- | --- | --- | --- | --- | --- | --- | --- | --- | --- | --- | --- | --- | --- | --- | --- |
| NC[C@@H]1CC(=NOCC(N)=O)[C@@H]2CN1C(=O)N2OS(=O)(=O)O (mixture of isomers) [Example 5, sodium and 2,2,2-trifluroacetate [(2S,5S)-4-(2-amino-2-oxo-ethoxy)imino-2-(azaniumylmethyl)-7-oxo-1,6-diazabicyclo[3.2.1]octan-6-yl] sulfate] | <0.25 | <0.25 | ≤0.25 | <0.25 | 1 | 2 | 0.5 | > 32 | > 32 | 0.125 | 32 | 1 | > 32 | > 32 | > 32 | > 32 | > 32 | 1 | 2 | 4 | MIC [21]: > 32 µg/mL; MIC [22]: 1 µg/mL; MIC [23]: > 32 µg/mL; MIC [24]: 2 µg/mL; MIC [25]: > 32 µg/mL; MIC [26]: 0.25 µg/mL; MIC [27]: 4 µg/mL; MIC [28]: 8 µg/mL; MIC, combination of CAZ and compounds of the invention at 4 μg/mL [29]: <0.25 µg/mL |
| NC[C@@H]1CC(=O)[C@@H]2CN1C(=O)N2OS(=O)(=O)O [Example 6, 2,2,2-trifluroacetate and sodium [(2S,5S)-2-(azaniumylmethyl)-4,7-dioxo-1,6-diazabicyclo[3.2.1]octan-6-yl] sulfate] | ≤0.25 | <0.25 | <0.25 | 0.5 | 4 | 4 | 4 | > 32 | > 32 | 0.5 | > 32 | 1 | > 32 | > 32 | > 32 | > 32 | > 32 | 4 | 4 | 16 | MIC [21]: > 32 µg/mL; MIC [22]: 4 µg/mL; MIC [23]: > 32 µg/mL; MIC [24]: 8 µg/mL; MIC [25]: > 32 µg/mL; MIC [26]: 1 µg/mL; MIC [27]: 8 µg/mL; MIC [28]: 2 µg/mL; MIC, combination of CAZ and compounds of the invention at 4 μg/mL [29]: ≤0.25 µg/mL |
